# Laboratory results published in PMC5538626, “Structural and functional analysis of the GABARAP interaction motif (GIM)” (EMBO Reports, 2017).
# Ends that are not written are not given here.
# Biological target: T1, GABARAP R28K (Homo sapiens, UniProt O95166, R28K)
# T1 construct: modified Ub-leader (ubiquitin fusion leader) (N); made in house; host or cells: E. coli NEB T7 Express
# Assay: ITC titration of PLEKHM1-LIR peptide into GABARAP R28K mutant
# Type: binding
# Protocol: The chimeric constructs were expressed as a His‐tag fusion protein in E. coli BL21(DE3) cells. The cells were induced with 0.3 mM IPTG at OD600 0.6 for 16 h at 26°C. The cell pellets were lysed using mechanical sonication in lysis buffer (20 mM Tris–HCl pH 9.0, 100 mM NaCl, 10 mM imidazole, supplemented with 0.1% Triton X‐100). The proteins were purified using Ni‐NTA beads (GE Healthcare) and the His‐tag was cleaved using thrombin (Invitrogen) at room temperature for 16 h. The last step was gel filtration chromatography using a Superdex S200/300 GL column (GE Healthcare). The proteins were concentrated using spin concentrators (Vivaspin). For ITC and NMR studies, the non‐labelled and stable isotopes labelled LC3 and GABARAP proteins were obtained based on the protocols described elsewhere 30, 39. Here, E. coli NEB T7 Express culture transformed with corresponding plasmids were grown till OD600 nm = 1.0 and protein expression was induced with 0.2 mM IPTG. The cultures were incubated at 25°C for 8–12 h before cell harvesting. Isolation and purification procedures were similar to those reported in Ref. 22, 40. Before experiments, all proteins and peptides were equilibrated with a buffer containing 50 mM Na2HPO4, 100 mM NaCl at pH 7.0, and supplied with 5 mM protease inhibitor cocktail.
# The protocol for preparation of non‐labelled and ^13C,^15N‐labelled PLEKHM1‐LIR peptide was slightly modified to achieve highest yield of the peptide. The 50 ml M9 culture was inoculated with NEB T7 cell transformed with pET39_Ub63‐PLEKHM1‐LIR plasmid and grown overnight at 37°. The collected cells were resuspended in 2 l of either LB or M9 media contained 1.5 g ^15N‐labelled NH4Cl and 3.0 g of ^13C‐labelled glucose. The cultures were grown at 37° till A(600 nm) = 0.9 and supplied with 1 mM of IPTG to induce Ub63‐PLEKHM1‐LIR overexpression (3 h at 37°). After that cells were harvested by centrifugation, re‐suspended in buffer contained 50 mM Tris–HCl pH = 7.9, 200 mM NaCl, 5% glycerol, 0.1 mg/ml DNase A and 4 mM protease inhibitor cocktail. After cell lysis by French press, debris was removed by centrifugation and clear supernatant was applied onto the column contained Ni‐NTA Sepharose equilibrated with the loading buffer (50 mM Tris–HCl pH = 7.9, 250 mM NaCl, 1% glycerol and 20 mM imidazole). Elution was performed with 400 mM imidazole in the same buffer. An aliquot of pure Ub63‐PLEKHM1‐LIR fractions was further purified by gel filtration on Superdex75 26 × 60 column for control ITC and analytical size exclusion chromatography experiments, remaining fusion protein was processed with the TEV‐protease and PLEKHM1‐LIR peptide was purified to 95% purity by reverse Ni‐NTA chromatography and followed gel filtration on Superdex75 26 × 60 column. Peak maximum of peptide was detected at […] (void volume 115 ml). Pure peptide was concentrated in Amicon concentrators with cut‐off of 3 kDa (> 95% retention).
# All titration experiments were performed at 25°C using a VP‐ITC microcalorimeter (Malvern Instruments Ltd, UK). The ITC data were analysed with the ITC‐Origin 7.0 software with a “one‐site” binding model. The peptides at concentrations of 0.4 mM were titrated into 0.020 mM LC3 and GABARAP proteins in 26 steps. The protein and peptide concentrations were calculated from the UV absorption at 280 nm by NanoDrop spectrophotometer (Thermo Fisher Scientific, DE, USA).
# T1 sequence (O95166 whole entry R28K, the tested form may be a part): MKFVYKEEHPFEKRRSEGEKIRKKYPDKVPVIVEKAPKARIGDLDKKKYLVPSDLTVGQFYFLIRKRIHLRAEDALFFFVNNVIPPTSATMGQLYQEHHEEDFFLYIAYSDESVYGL
sequence,measurement,setting,value
GAMGPQQEDEWVNVQYPD [PLEKHM1‐LIR WT],-T*DS,"25°C, pH 7.0, GABARAP R28K",+2.00 kcal mol-1
same,DG (ΔG),"25°C, pH 7.0, GABARAP R28K",-8.55 kcal/mol
same,DH (ΔH),"25°C, pH 7.0, GABARAP R28K",-10.55 ± 0.1 kcal/mol
same,DS (ΔS),"25°C, pH 7.0, GABARAP R28K",-6.71 cal mol-1 K-1
same,KA,"25°C, pH 7.0, GABARAP R28K",1.9±0.1 *10^6 M-1
same,N,"25°C, pH 7.0, GABARAP R28K",1.05±0.01
same,smaller favorable enthalpy vs wild type GABARAP,within experimental error,0.05 kcal/mol
